Test: xn = mol fraction of the nth substance listed

C[Si]1(C)O[Si](C)(C)O[Si](C)(C)O[Si](C)(C)O1 + CCCCCCCCCCCC
viscosity [mPa·s], 103 kPa
Settings	298.15 K	308.15 K	318.15 K
x1 = 0.05	1.314	1.107	0.951
x1 = 0.1	1.32	1.113	0.962
x1 = 0.15	1.342	1.132	0.972
x1 = 0.2	1.352	1.141	0.982
x1 = 0.25	1.366	1.153	0.991
x1 = 0.3	1.384	1.167	1
x1 = 0.35	1.402	1.183	1.012
x1 = 0.3999	1.431	1.202	1.028
x1 = 0.45	1.454	1.225	1.048
x1 = 0.5	1.489	1.251	1.068
x1 = 0.5501	1.517	1.278	1.089
x1 = 0.6	1.554	1.309	1.114
x1 = 0.65	1.6	1.345	1.142
x1 = 0.6999	1.643	1.38	1.173
x1 = 0.75	1.7	1.426	1.209
x1 = 0.7999	1.759	1.473	1.248
x1 = 0.85	1.828	1.523	1.292
x1 = 0.9	1.91	1.588	1.343
x1 = 0.95	1.985	1.652	1.39

C[Si]1(C)O[Si](C)(C)O[Si](C)(C)O[Si](C)(C)O1 + CCCCCCCCCCCCC
viscosity [mPa·s], 103 kPa
Settings	298.15 K	308.15 K	318.15 K
x1 = 0.05	1.619	1.351	1.145
x1 = 0.1	1.61	1.343	1.139
x1 = 0.15	1.604	1.339	1.137
x1 = 0.2	1.602	1.338	1.134
x1 = 0.2501	1.604	1.346	1.136
x1 = 0.3	1.608	1.342	1.139
x1 = 0.35	1.614	1.345	1.143
x1 = 0.4	1.62	1.355	1.149
x1 = 0.45	1.636	1.366	1.159
x1 = 0.5	1.649	1.375	1.167
x1 = 0.55	1.667	1.389	1.177
x1 = 0.6	1.69	1.406	1.191
x1 = 0.65	1.715	1.43	1.209
x1 = 0.7	1.751	1.458	1.24
x1 = 0.75	1.794	1.498	1.269
x1 = 0.8	1.826	1.53	1.293
x1 = 0.85	1.89	1.572	1.328
x1 = 0.9	1.941	1.62	1.365
x1 = 0.95	1.996	1.659	1.405

C[Si]1(C)O[Si](C)(C)O[Si](C)(C)O[Si](C)(C)O1 + CCCCCCCCCCCCCC
viscosity [mPa·s], 103 kPa
Settings	298.15 K	308.15 K	318.15 K
x1 = 0.05	1.944	1.605	1.347
x1 = 0.1	1.905	1.579	1.327
x1 = 0.15	1.881	1.56	1.312
x1 = 0.2	1.859	1.536	1.293
x1 = 0.25	1.853	1.523	1.282
x1 = 0.3	1.843	1.527	1.287
x1 = 0.35	1.833	1.52	1.281
x1 = 0.4	1.831	1.518	1.278
x1 = 0.45	1.82	1.509	1.274
x1 = 0.5	1.815	1.507	1.273
x1 = 0.55	1.817	1.51	1.275
x1 = 0.6	1.824	1.515	1.279
x1 = 0.65	1.831	1.522	1.285
x1 = 0.7	1.844	1.533	1.294
x1 = 0.7498	1.861	1.548	1.307
x1 = 0.8	1.887	1.571	1.324
x1 = 0.85	1.922	1.6	1.349
x1 = 0.8999	1.965	1.632	1.376
x1 = 0.95	2.014	1.672	1.406

CCNc1ccccc1 + CCCCCCCCCCO
viscosity [mPa·s], 101 kPa
Settings	303.15 K	308.15 K	313.15 K
x1 = 0.0817	7.725	7.287	6.857
x1 = 0.1745	6.632	6.215	5.818
x1 = 0.2651	5.714	5.323	4.959
x1 = 0.3524	4.951	4.585	4.253
x1 = 0.4321	4.345	4.002	3.697
x1 = 0.5012	3.88	3.557	3.274
x1 = 0.5685	3.476	3.173	2.909
x1 = 0.6325	3.131	2.845	2.6
x1 = 0.6958	2.825	2.556	2.327
x1 = 0.7521	2.579	2.324	2.109
x1 = 0.8012	2.382	2.14	1.937
x1 = 0.8562	2.18	1.952	1.762
x1 = 0.9021	2.027	1.81	1.63

CCNc1ccccc1 + CCCCCCCCO
viscosity [mPa·s], 101 kPa
Settings	303.15 K	308.15 K	313.15 K
x1 = 0.0802	5.589	4.869	3.822
x1 = 0.1625	5.024	4.381	3.478
x1 = 0.2541	4.463	3.898	3.134
x1 = 0.3514	3.937	3.445	2.808
x1 = 0.4421	3.504	3.071	2.537
x1 = 0.5012	3.248	2.851	2.375
x1 = 0.5741	2.96	2.601	2.19
x1 = 0.6214	2.787	2.451	2.078
x1 = 0.6952	2.538	2.235	1.915
x1 = 0.7412	2.395	2.112	1.822
x1 = 0.7954	2.238	1.975	1.717
x1 = 0.8412	2.114	1.867	1.635
x1 = 0.8921	1.984	1.756	1.549

CCNc1ccccc1 + CCCCCCCO
viscosity [mPa·s], 101 kPa
Settings	303.15 K	308.15 K	313.15 K
x1 = 0.0812	4.393	4.271	4.154
x1 = 0.1589	4.051	3.907	3.774
x1 = 0.2456	3.705	3.541	3.394
x1 = 0.3612	3.288	3.108	2.948
x1 = 0.4304	3.063	2.875	2.711
x1 = 0.5023	2.847	2.653	2.486
x1 = 0.5744	2.646	2.449	2.278
x1 = 0.6415	2.474	2.273	2.103
x1 = 0.7125	2.304	2.102	1.932
x1 = 0.7754	2.166	1.963	1.794
x1 = 0.8214	2.071	1.867	1.7
x1 = 0.8741	1.966	1.765	1.6
x1 = 0.9214	1.878	1.678	1.516

COCC(C)OCC(C)OC (stereo not drawn) + CCCCCCCO
Settings	viscosity [mPa·s]
298.15 K, 101 kPa, x1 = 0.4532	1.895

ClCCCl + CCCCCCCO
303.15 K, 101 kPa
Settings	viscosity [mPa·s]
x2 = 0.1082	0.852
x2 = 0.1749	0.918
x2 = 0.3034	1.082
x2 = 0.456	1.415
x2 = 0.5496	1.752
x2 = 0.622	2.078
x2 = 0.7978	3.174
x2 = 0.8642	3.699
x2 = 0.9346	4.286
